Common to all, as to assay: relative viability (nuclei count vs DMSO), 5 days (fraction); higher = more cells survive
Compound in the experiment “KIN001-266 + Dasatinib”: CCN1CCC(CC1)N2C=C(N=N2)CNC3=CC4=C(C(=CN=C4C(=C3)Cl)C#N)NC5=CC(=C(C=C5)F)Cl [KIN001-266] + Cc1nc(Nc2ncc(C(=O)Nc3c(C)cccc3Cl)s2)cc(N2CCN(CCO)CC2)n1 [Dasatinib] (partner 0.075 µM)
The method, boiled down:
(§1)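 Relative viability equals treated-well nuclei counts divided by vehicle-well nuclei counts. Counts came from 4× images of lung cancer cell lines grown in 1536-well plates for 5 days after pin-tool dosing on the day after seeding. Dosing used one drug alone or a fixed anchor-drug dose plus five library-drug doses (not always all listed) in √10 steps, and values are medians of duplicate plates.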

Compound in the experiment “KIN001-266 + Bortezomib”: CCN1CCC(CC1)N2C=C(N=N2)CNC3=CC4=C(C(=CN=C4C(=C3)Cl)C#N)NC5=CC(=C(C=C5)F)Cl [KIN001-266] + CC(C)C[C@H](NC(=O)[C@H](Cc1ccccc1)NC(=O)c1cnccn1)B(O)O [Bortezomib] (partner 0.002 µM)
The method, boiled down: as §1

Compound in the experiment “KIN001-266 + Palbociclib”: CCN1CCC(CC1)N2C=C(N=N2)CNC3=CC4=C(C(=CN=C4C(=C3)Cl)C#N)NC5=CC(=C(C=C5)F)Cl [KIN001-266] + CC(=O)c1c(C)c2cnc(Nc3ccc(N4CCNCC4)cn3)nc2n(C2CCCC2)c1=O [Palbociclib] (partner 0.5 µM)
The gist of the method:
as §1

Compound in the experiment “KIN001-266 + Alpelisib”: CCN1CCC(CC1)N2C=C(N=N2)CNC3=CC4=C(C(=CN=C4C(=C3)Cl)C#N)NC5=CC(=C(C=C5)F)Cl [KIN001-266] + Cc1nc(NC(=O)N2CCC[C@H]2C(N)=O)sc1-c1ccnc(C(C)(C)C(F)(F)F)c1 [Alpelisib] (partner 2 µM)
The method, boiled down:
as §1

With LOU-NH91, the relative viability is 0.553 with KIN001-266 + Dasatinib (first compound 0.08 µM); 0.531 in the experiment with KIN001-266 + Dasatinib (first compound 0.253 µM); 0.39 with KIN001-266 + Dasatinib (first compound 0.8 µM); 0.516 with KIN001-266 + Dasatinib (first compound 2.53 µM); 0.435 in the experiment with KIN001-266 + Dasatinib (first compound 8 µM); 0.499 in the experiment with KIN001-266 + Bortezomib (first compound 0.08 µM). Further, the relative viability with KIN001-266 + Bortezomib (first compound 0.253 µM) worked out at 0.497; in the experiment with KIN001-266 + Bortezomib (first compound 0.8 µM) it was 0.428; with KIN001-266 + Bortezomib (first compound 2.53 µM), 0.513; in the experiment with KIN001-266 + Bortezomib (first compound 8 µM), 0.443; with KIN001-266 + Palbociclib (first compound 0.08 µM) it was 0.526; with KIN001-266 + Palbociclib (first compound 0.253 µM), 0.544. The relative viability with KIN001-266 + Palbociclib (first compound 0.8 µM) was determined as 0.509; with KIN001-266 + Palbociclib (first compound 2.53 µM) it was 0.525; with KIN001-266 + Palbociclib (first compound 8 µM), 0.53; with KIN001-266 + Alpelisib (first compound 0.08 µM), 0.735; with KIN001-266 + Alpelisib (first compound 0.253 µM), 0.724; with KIN001-266 + Alpelisib (first compound 0.8 µM), 0.501. Also, the relative viability was found to be 0.676 in the experiment with KIN001-266 + Alpelisib (first compound 2.53 µM) and 0.588 with KIN001-266 + Alpelisib (first compound 8 µM).

As to NCI-H2347, the relative viability with KIN001-266 + Dasatinib (first compound 0.08 µM) was determined as 0.34; with KIN001-266 + Dasatinib (first compound 0.253 µM), 0.294; with KIN001-266 + Dasatinib (first compound 0.8 µM), 0.258; with KIN001-266 + Dasatinib (first compound 2.53 µM) it was 0.329; with KIN001-266 + Dasatinib (first compound 8 µM), 0.241; in the experiment with KIN001-266 + Bortezomib (first compound 0.08 µM), 1.16. The relative viability is 1.03 with KIN001-266 + Bortezomib (first compound 0.253 µM); 0.905 with KIN001-266 + Bortezomib (first compound 0.8 µM); 0.858 with KIN001-266 + Bortezomib (first compound 2.53 µM); 0.611 with KIN001-266 + Bortezomib (first compound 8 µM); 0.445 with KIN001-266 + Palbociclib (first compound 0.08 µM); 0.468 with KIN001-266 + Palbociclib (first compound 0.253 µM). The relative viability with KIN001-266 + Palbociclib (first compound 0.8 µM) was determined as 0.401; with KIN001-266 + Palbociclib (first compound 2.53 µM) it was 0.442; with KIN001-266 + Palbociclib (first compound 8 µM), 0.404; in the experiment with KIN001-266 + Alpelisib (first compound 0.08 µM) it was 1.03; with KIN001-266 + Alpelisib (first compound 0.253 µM), 1.01; with KIN001-266 + Alpelisib (first compound 0.8 µM), 1.03. For the same cell line, the relative viability stood at 0.996 in the experiment with KIN001-266 + Alpelisib (first compound 2.53 µM) and 0.578 with KIN001-266 + Alpelisib (first compound 8 µM).

NCI-H2126: the relative viability in the experiment with KIN001-266 + Dasatinib (first compound 0.08 µM) was 0.656; in the experiment with KIN001-266 + Dasatinib (first compound 0.253 µM), 0.631; with KIN001-266 + Dasatinib (first compound 0.8 µM), 0.599; in the experiment with KIN001-266 + Dasatinib (first compound 2.53 µM), 0.624; with KIN001-266 + Dasatinib (first compound 8 µM), 0.589; in the experiment with KIN001-266 + Bortezomib (first compound 0.08 µM), 1.16. For the same cell line, the relative viability worked out at 1.12 in the experiment with KIN001-266 + Bortezomib (first compound 0.253 µM); 1.15 with KIN001-266 + Bortezomib (first compound 0.8 µM); 1.13 with KIN001-266 + Bortezomib (first compound 2.53 µM); 1.14 in the experiment with KIN001-266 + Bortezomib (first compound 8 µM); 0.324 with KIN001-266 + Palbociclib (first compound 0.08 µM); 0.366 with KIN001-266 + Palbociclib (first compound 0.253 µM). The relative viability with KIN001-266 + Palbociclib (first compound 0.8 µM) stood at 0.387; in the experiment with KIN001-266 + Palbociclib (first compound 2.53 µM) it was 0.358; with KIN001-266 + Palbociclib (first compound 8 µM), 0.365; with KIN001-266 + Alpelisib (first compound 0.08 µM) it was 0.77; in the experiment with KIN001-266 + Alpelisib (first compound 0.253 µM), 0.76; with KIN001-266 + Alpelisib (first compound 0.8 µM), 0.774. The relative viability with KIN001-266 + Alpelisib (first compound 2.53 µM) came to 0.703; with KIN001-266 + Alpelisib (first compound 8 µM) it was 0.76.

Regarding HCC-827, the relative viability came to 0.349 with KIN001-266 + Dasatinib (first compound 0.08 µM); 0.317 with KIN001-266 + Dasatinib (first compound 0.253 µM); 0.275 in the experiment with KIN001-266 + Dasatinib (first compound 2.53 µM); 0.229 with KIN001-266 + Dasatinib (first compound 8 µM); 1.09 with KIN001-266 + Bortezomib (first compound 0.08 µM); 1.03 with KIN001-266 + Bortezomib (first compound 0.253 µM). Further, the relative viability with KIN001-266 + Bortezomib (first compound 2.53 µM) was found to be 1.07; with KIN001-266 + Bortezomib (first compound 8 µM) it was 1.09; with KIN001-266 + Palbociclib (first compound 0.08 µM), 0.443; with KIN001-266 + Palbociclib (first compound 0.253 µM), 0.492; in the experiment with KIN001-266 + Palbociclib (first compound 0.8 µM), 0.374; with KIN001-266 + Palbociclib (first compound 2.53 µM), 0.471. The relative viability in the experiment with KIN001-266 + Palbociclib (first compound 8 µM) was 0.467; with KIN001-266 + Alpelisib (first compound 0.08 µM) it was 0.953; in the experiment with KIN001-266 + Alpelisib (first compound 0.253 µM), 1.04; with KIN001-266 + Alpelisib (first compound 2.53 µM), 0.948; with KIN001-266 + Alpelisib (first compound 8 µM) it was 0.648.

Take NCI-H3122: the relative viability in the experiment with KIN001-266 + Dasatinib (first compound 0.08 µM) was determined as 0.78; with KIN001-266 + Dasatinib (first compound 0.253 µM) it was 0.752; with KIN001-266 + Dasatinib (first compound 0.8 µM), 0.856; with KIN001-266 + Dasatinib (first compound 2.53 µM), 0.891; with KIN001-266 + Dasatinib (first compound 8 µM), 0.763; in the experiment with KIN001-266 + Bortezomib (first compound 0.08 µM) it was 0.996. Besides, the relative viability with KIN001-266 + Bortezomib (first compound 0.253 µM) stood at 1.03; with KIN001-266 + Bortezomib (first compound 0.8 µM) it was 1.03; with KIN001-266 + Bortezomib (first compound 2.53 µM), 0.969; in the experiment with KIN001-266 + Bortezomib (first compound 8 µM), 0.974; with KIN001-266 + Palbociclib (first compound 0.08 µM) it was 0.155; in the experiment with KIN001-266 + Palbociclib (first compound 0.253 µM), 0.204. Besides, the relative viability with KIN001-266 + Palbociclib (first compound 0.8 µM) turned out to be 0.176; with KIN001-266 + Palbociclib (first compound 2.53 µM), 0.233; in the experiment with KIN001-266 + Palbociclib (first compound 8 µM), 0.209; with KIN001-266 + Alpelisib (first compound 0.08 µM), 0.841; in the experiment with KIN001-266 + Alpelisib (first compound 0.253 µM), 0.909; with KIN001-266 + Alpelisib (first compound 0.8 µM) it was 0.699. The relative viability stood at 0.728 in the experiment with KIN001-266 + Alpelisib (first compound 2.53 µM) and 0.767 with KIN001-266 + Alpelisib (first compound 8 µM).

For HOP-62, the relative viability was 0.662 with KIN001-266 + Dasatinib (first compound 0.08 µM); 0.686 in the experiment with KIN001-266 + Dasatinib (first compound 0.253 µM); 0.601 with KIN001-266 + Dasatinib (first compound 0.8 µM); 0.675 with KIN001-266 + Dasatinib (first compound 2.53 µM); 0.55 with KIN001-266 + Dasatinib (first compound 8 µM); 0.563 with KIN001-266 + Bortezomib (first compound 0.08 µM). In addition, the relative viability in the experiment with KIN001-266 + Bortezomib (first compound 0.253 µM) was 0.565; in the experiment with KIN001-266 + Bortezomib (first compound 0.8 µM), 0.575; with KIN001-266 + Bortezomib (first compound 2.53 µM), 0.779; with KIN001-266 + Bortezomib (first compound 8 µM), 1.07; with KIN001-266 + Palbociclib (first compound 0.08 µM), 0.473; with KIN001-266 + Palbociclib (first compound 0.253 µM) it was 0.472. The relative viability in the experiment with KIN001-266 + Palbociclib (first compound 0.8 µM) is 0.457; in the experiment with KIN001-266 + Palbociclib (first compound 2.53 µM), 0.479; with KIN001-266 + Palbociclib (first compound 8 µM), 0.485; with KIN001-266 + Alpelisib (first compound 0.08 µM), 1.09; with KIN001-266 + Alpelisib (first compound 0.253 µM) it was 1.21; in the experiment with KIN001-266 + Alpelisib (first compound 0.8 µM), 0.967. Moreover, the figures for the relative viability with KIN001-266 + Alpelisib (first compound 2.53 µM) and with KIN001-266 + Alpelisib (first compound 8 µM) were 1.02 and 0.84, respectively.

The record behind these values is the supplement of paper PMC10307832.
